Experimental data from publication PMC11355918, “Inhibition of Soluble Epoxide Hydrolase by Cembranoid Diterpenes from Soft Coral Sinularia maxima: Enzyme Kinetics, Molecular Docking, and Molecular Dynamics” (Marine Drugs, 2024).
Like-named read-outs stand apart in the source and are kept apart here.

Tests used:
recombinant human sEH [1] = molecular target: T1, recombinant human sEH (Homo sapiens, UniProt P34913); assay: biochemical; settings: PHOME substrate, 37 °C, 60 min, mean ± SD (n = 3); read-out: IC50 (sEH inhibitory effect)
T1 sequence (P34913 1-555): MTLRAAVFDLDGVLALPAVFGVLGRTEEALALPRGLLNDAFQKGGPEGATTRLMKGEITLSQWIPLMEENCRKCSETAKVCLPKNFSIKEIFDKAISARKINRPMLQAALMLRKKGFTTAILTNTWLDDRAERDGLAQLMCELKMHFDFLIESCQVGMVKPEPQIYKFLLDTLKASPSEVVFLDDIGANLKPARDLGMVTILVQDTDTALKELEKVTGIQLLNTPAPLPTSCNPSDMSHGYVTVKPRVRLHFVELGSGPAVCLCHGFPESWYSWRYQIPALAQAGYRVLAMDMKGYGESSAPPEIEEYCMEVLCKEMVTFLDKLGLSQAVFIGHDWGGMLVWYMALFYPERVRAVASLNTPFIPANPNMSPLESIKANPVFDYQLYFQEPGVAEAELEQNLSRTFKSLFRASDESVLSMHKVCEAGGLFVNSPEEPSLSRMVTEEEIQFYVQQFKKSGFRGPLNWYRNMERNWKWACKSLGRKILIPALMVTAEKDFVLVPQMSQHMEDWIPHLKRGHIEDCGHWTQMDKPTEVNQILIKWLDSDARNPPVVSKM
Method: Bis-Tris (B9754) was purchased from Sigma-Aldrich (St. Louis, MO, USA).
The sEH inhibition assay was performed as described in a previous study, with slight modifications. In 96-well plates, separate mixtures were prepared for each test compound, containing 130 µL of sEH in Bis-Tris buffer with HCl (pH 7.0, containing 0.1% bovine serum albumin) and 20 µL of the test compound (10 mM, diluted in DMSO). Subsequently, 50 µL of PHOME, which serves as a substrate, was added to each well. The mixtures were then incubated at 37 °C, and fluorescence was monitored using the VICTOR Nivo multimode plate reader (PerkinElmer, Waltham, MA, USA) for 60 min, with excitation and emission wavelengths of 330 nm and 460 nm, respectively. […] The inhibitory activity was calculated using the following equation:Inhibitory activity (%) = [1 − (ΔI/ΔC)] × 100%, where ΔI and ΔC are the fluorescence readings of the inhibitor and the control after 60 min, respectively. IC50 values were calculated using SigmaPlot 10.0 (Systat Software, CA, USA). Data are presented as means ± standard deviations from three independent experiments (n = 3, p < 0.05).

sEH = settings: cited from earlier work
recombinant human sEH [2] = molecular target: T1, recombinant human sEH; assay: Enzyme kinetics of sEH inhibition (Lineweaver-Burk and Dixon plots); assay type: biochemical; settings: for Ki: Determined using Dixon plots, read-out: Ki (inhibition constant); for Inhibition Type: Determined using Lineweaver-Burk plots, PHOME 0.1-0.8 mM
Method: The inhibition type of a compound provides insight into how it interacts with the enzyme. […] PHOME concentrations of 0.1, 0.2, 0.4, and 0.8 mM were used, along with compound 3 concentrations of 0, 15, 30, 60, and 90 µM, and compound 9 concentrations of 0, 20, 40, 60, and 100 µM. In the Lineweaver–Burk method, competitive and non-competitive inhibition is indicated by a series of straight lines intersecting at the same point on the y- and x-axes, respectively. […] In most cases, this implies that these inhibitors bind to an allosteric site on the enzyme rather than the active site, thereby preventing the enzyme from functioning regardless of the substrate concentration.
The inhibition constant (Ki) is a measure of the binding affinity of the inhibitor for the enzyme, with a lower value indicating a stronger affinity. Dixon plots were used to determine the Ki values for the compounds.
Enzyme kinetics were analyzed using Lineweaver–Burk and Dixon plots. This approach helped determine the mode of inhibition and the inhibition constant (Ki) at various substrate concentrations, both in the absence (0 μM) and presence of inhibitors. Data were plotted using Microsoft Excel 365.

[3] = protostane-type triterpenoids from Alisma orientale, read-out: IC50 (sEH inhibition)

| IC50 (recombinant human sEH [1]) | Compound | other results |
| --- | --- | --- |
| > 100 µM | C=C(C)[C@H]1CCC2=C[C@@H](C[C@@]3(C)CC(=O)[C@H](CC(=O)C1)O3)OC2=O [Compound 10, 5-epinorcembrene] |  |
| 78.8 ± 2.26 µM | C=C(C)C1CC=C(C(=O)OC)CC(=O)CC(C)(O)C=C2C=C(C(=O)OC)C(OC)(C1)O2 (stereo not drawn) [Compound 9, sethukarailin] | Ki (recombinant human sEH [2]): 55 µM; Inhibition Type (recombinant human sEH [2]): Non-competitive |
| > 100 µM | CC1=CC2OCC(C)(O)C2=CCC(C)(O)C=CCC2(C)OC2CC1 (stereo not drawn) [Compound 6, sinumaximol F] |  |
| > 100 µM | C=C1CCC2=C(C)COC2C=C(C)CCC(O)C(C)(O)CCC1O (stereo not drawn) [Compound 8, sinumaximol H] |  |
| > 100 µM | CC1=CC2OC(=O)C(C)=C2CCC(C)(O)C=CCC(C)(O)C(O)CC1 (stereo not drawn) [Compound 7, sinumaximol G] |  |

Continued, compound first:

| Compound | IC50 (recombinant human sEH [1]) | other results |
| --- | --- | --- |
| C=C(C)C1CCC2=CC(CC(C)(O)C(O)C3=CC(C(=O)OC)=C(C1)O3)OC2=O (stereo not drawn) [Compound 2, sinumaximol B] | > 100 µM |  |
| C=C1CCC2(O)C(=C)COC2C=C(C)CCC2OC2(C)CCC1O (stereo not drawn) [Compound 4, sinumaximol D] | > 100 µM |  |
| C=C(C)[C@@H](O)[C@@H](O)C[C@@H](C)C1=C2CC[C@H]3[C@@]4(C)CCC(=O)C(C)(C)[C@@H]4CC[C@]3(C)[C@@]2(C)CC1 [11-deoxy-25-anhydro alisol E] |  | IC50 (sEH; protostane-type triterpenoids, read-out: IC50 (sEH inhibitory effects)): 5.94 ± 0.54 µM |
| C=C(C)C1CCC23OC2C(CC(C)(O)C=C2C=C(C(=O)OC)C(OC)(C1)O2)OC3=O (stereo not drawn) [Compound 3, sinumaximol C] | 70.7 ± 1.44 µM | Ki (recombinant human sEH [2]): 59.4 µM; Inhibition Type (recombinant human sEH [2]): Non-competitive |
| 3β-hydroxy-25-anhydro-alisol F |  | IC50 (sEH; [3]): 10.1 ± 1.12 µM |
| C=C1CC=C2C(C=C(C)CCC3OC3(C)CCC1O)OCC2(C)O (stereo not drawn) [Compound 5, sinumaximol E] | > 100 µM |  |
| 3β-hydroxy-alisol G |  | IC50 (sEH; [3]): 30.4 ± 2.65 µM |
| C=C(C)[C@H]1C/C=C(\C(=O)OC)CC(=O)C[C@@](C)(O)[C@@H](O)C2=CC(C(=O)OC)=C(C1)O2 [Compound 1, sinumaximol A] | > 100 µM |  |
| C[C@@H]1CC[C@]2(C(=O)O)CC[C@]3(C)C(=CC[C@@H]4[C@@]5(C)CC(=O)[C@H](O)C(C)(C)[C@@H]5CC[C@]43C)[C@@H]2[C@]1(C)O [2-oxopomolic acid] |  | IC50 (sEH; triterpenoid from Malus domestica, read-out: IC50 (sEH inhibitory activity)): 11.4 ± 2.7 µM |
